From patent publication US10294202B2, “Pyrrolidinones as herbicides” (FMC Corporation, priority 2013, dated 2019)

Assays:
bromegrass, downy = assay: Test C pre-/postemergence herbicide test; assay type: in vivo, Bromus tectorum
In short: (§1)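 Greenhouse plants scored visually against untreated controls 13–15 days after treatment, 0 = no effect, 100 = complete control. Test chemicals in a non-phytotoxic solvent with surfactant were applied either to soil (loam/sand) at planting or to foliage of 1- to 4-leaf plants, 2–18 cm tall.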

cocklebur = assay: Test C pre-/postemergence herbicide test; assay type: in vivo, Xanthium strumarium
In short: as §1

canarygrass = assay: Test D pre-/postemergence herbicide test; assay type: in vivo, Phalaris minor; conditions: Postemergence, Canarygrass, scale 0 to 100
In short: (§2)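 Visual ratings from 0 (no effect) to 100 (complete control) were made against untreated controls 7 to 21 days after treatment. Application was both preemergence, on silt loam soil, and postemergence, to 1- to 4-leaf plants 2-18 cm tall; compounds were formulated in a non-phytotoxic surfactant-containing solvent.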

barley, winter = assay: Test D pre-/postemergence herbicide test; assay type: in vivo, Hordeum vulgare; conditions: Postemergence, Barley, Winter, scale 0 to 100
In short: as §2

barnyardgrass = assay: Test E preemergence herbicide test; assay type: in vivo, Echinochloa crus-galli; design: key: 0 = no effect, 100 = complete control
In short: (§3)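 Visual injury rating, 0 (no effect) to 100 (complete control), versus controls at 21 days in greenhouse. Preemergence application to seeds planted in silt loam; compound formulated in non-phytotoxic solvent mix plus surfactant.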

kochia = assay: Test E preemergence herbicide test; assay type: in vivo, Kochia scoparia; design: key: 0 = no effect, 100 = complete control
In short: as §3

[1] = Postemergence, 31 g ai/ha, scale 0 (no effect) to 100 (complete control)
[2] = Postemergence, 62 g ai/ha, scale 0 to 100 (0 no effect, 100 complete control)
[3] = Postemergence, 125 g ai/ha, scale 0 to 100 (0 no effect, 100 complete control)
[4] = Postemergence, 250 g ai/ha, scale 0 to 100 (0 no effect, 100 complete control)
[5] = Preemergence, 62 g ai/ha, scale 0 to 100
[6] = Preemergence, 125 g ai/ha, scale 0 to 100 (0 no effect, 100 complete control)
[7] = Preemergence, 31 g ai/ha, scale 0 to 100 (0 no effect, 100 complete control)
[8] = Preemergence, 250 g ai/ha, scale 0 to 100 (0 no effect, 100 complete control)

O=C1NCC(c2ccc(F)c(F)c2)C1C(=O)Nc1cccc(F)c1F (stereo not drawn) [Compound 17, N-(2,3-difluorophenyl)-4-(3,4-difluorophenyl)-2-oxo-3-pyrrolidinecarboxamide]
80: Plant response rating, Barnyardgrass (barnyardgrass; 62 g ai/ha)
0: Plant response rating, Bromegrass, Downy (bromegrass, downy; [1]) | Plant response rating, Bromegrass, Downy (bromegrass, downy; [2]) | Plant response rating, Bromegrass, Downy (bromegrass, downy; [3]) | Plant response rating, Bromegrass, Downy (bromegrass, downy; [4]) | Bromegrass, Downy plant response rating (bromegrass, downy; [7]) | Plant response rating, Cocklebur (cocklebur; [1]) | Plant response rating, Cocklebur (cocklebur; [2]) | Plant response rating, Cocklebur (cocklebur; [3]) | Plant response rating, Cocklebur (cocklebur; [4]) | Cocklebur plant response rating (cocklebur; [7]) | Plant response rating (canarygrass; 16 g ai/ha) | Plant response rating (canarygrass; 31 g ai/ha) | Plant response rating (canarygrass; 62 g ai/ha) | Plant response rating (canarygrass; 125 g ai/ha) | Plant response rating (canarygrass; 250 g ai/ha) | Plant response rating (barley, winter; 16 g ai/ha) | Plant response rating (barley, winter; 31 g ai/ha) | Plant response rating (barley, winter; 62 g ai/ha) | Plant response rating (barley, winter; 125 g ai/ha) | Plant response rating (barley, winter; 250 g ai/ha) | Plant response rating, Barnyardgrass (barnyardgrass; 16 g ai/ha) | Plant response rating, Barnyardgrass (barnyardgrass; 31 g ai/ha) | Plant response rating, Kochia (kochia; 16 g ai/ha) | Plant response rating, Kochia (kochia; 31 g ai/ha) | Plant response rating, Kochia (kochia; 62 g ai/ha)
45: Plant response rating, Bromegrass, Downy (bromegrass, downy; [6])
98: Plant response rating, Barnyardgrass (barnyardgrass; 250 g ai/ha)
5: Plant response rating, Cocklebur (cocklebur; [5]) | Plant response rating, Cocklebur (cocklebur; [6]) | Plant response rating, Cocklebur (cocklebur; [8])
50: Plant response rating, Kochia (kochia; 250 g ai/ha)
25: Plant response rating, Kochia (kochia; 125 g ai/ha)
95: Plant response rating, Barnyardgrass (barnyardgrass; 125 g ai/ha)
30: Plant response rating, Bromegrass, Downy (bromegrass, downy; [5])
65: Plant response rating, Bromegrass, Downy (bromegrass, downy; [8])
